Numbers after ± are expanded uncertainties.
Settings: Liquid, Pendant drop shape

[Ar] [argon] + O
interfacial tension [mN/m]
Settings | 2000 kPa | 5000 kPa | 10000 kPa | 15000 kPa | 20000 kPa | 25000 kPa | 30000 kPa | 40000 kPa | 50000 kPa
298.01 K | 71.6 ± 2.3 | 69.7 ± 2.2 | 67.4 ± 2.2 | 65.3 ± 2.1 | 63.3 ± 2 | 61.9 ± 2 | 60.7 ± 1.9 | 58.6 ± 1.9 | 57 ± 2
323.16 K | 67.1 ± 2.1 | 65.7 ± 2.1 | 63.2 ± 2 | 61.1 ± 2 | 59.4 ± 1.9 | 57.9 ± 1.9 | 56.5 ± 1.8 | 54.5 ± 1.7 | 53.3 ± 1.7
373.28 K | 58.5 ± 1.9 | 57.2 ± 1.8 | 55.5 ± 1.8 | 53.9 ± 1.7 | 52.7 ± 1.7 | 51.6 ± 1.7 | 50.8 ± 1.6 | 49.3 ± 1.6 | 48.2 ± 1.5
448.07 K | 43.1 ± 1.4 | 42.5 ± 1.4 | 41.3 ± 1.3 | 40.3 ± 1.3 | 39.5 ± 1.3 | 38.8 ± 1.2 | 38.3 ± 1.2 | 37.3 ± 1.2 | 36.6 ± 1.2
473.53 K | 37.3 ± 1.2 | 36.5 ± 1.2 | 35.6 ± 1.1 | 34.8 ± 1.1 | 34.1 ± 1.1 | 33.7 ± 1.1 | 33.1 ± 1.1 | 32.9 ± 1.1 | 32.8 ± 1.1

Source: the NIST ThermoML archive (doi:10.1016/j.fluid.2015.07.026)
